Measurements as given in patent US20030125242A1, “Polypeptides comprising multimers of nuclear localization signals or of protein transduction domains and their use for transferring molecules into cells” (priority 1999, published 2003).
Where no end group is shown, it is not given here.

Assays:
[1] = system: HeLa S6 cells; test: nuclear transport of BSA covalently linked to peptide in digitonin permeabilized cells; format: cell-based; conditions: 600 nM peptide/BSA-BODIPY, 30 min, fluorescence microscope
[2] = system: 16HBE14o-cells; test: luciferase transfection assay with vector/DNA (CMVL-W) complexes; format: cell-based
[3] = system: HeLa S6 cells; test: fluorescence in situ hybridisation of plasmid pEGFP after transfection (fluorescence microscopy and CLSM); format: cell-based; conditions: for location of plasmid DNA by CLSM: confocal laser scanning microscopy; for nuclear localization of plasmid DNA / cells showing signals in the nuclear region: fluorescence microscopy
[4] = system: 16HBE14o-cells; test: proportion of transgene (GFP) expressing cells by flow cytometry; format: cell-based; conditions: 1 μg pEGFP/(PKKKRKVG)4 complexes (N/P 8), 24 hours
Method: (A, B, D, E) Flow cytometry of 16HBE14o-cells transfected with DNA (pEGFP) or DNA complexed with (PKKKRKVG)4. Transfection was stopped after 24 hours. Cells were treated with trypsin and resuspended in medium. FCS: Forward scatter. FH-1: green channel for the GFP signal. (A, B) Control. Cells were only transfected with 1 μg pEGFP. Mean: 5.66. M1: 96% of total cells. M2: 4% of total cells. (D, E) Transfection with 1 μg pEGFP/(PKKKRKVG)4 complexes (N/P 8). Mean: 10.25. M1: 55% of total cells. M2: 45% of total cells. Near half the cell population expresses green fluorescence protein. (C, F) Fluorescence microscopy images of HeLa S6 cells transfected with (C) 1 μg pEGFP or (F) 1 μg pEGFP complexed with (PKKKRKVG)4 (N/P 8). Images were taken with a 40× objective (exposure time: 2 sec).
It was examined how many cells express the transgene product. 16HBE14o-cells were transfected with 1 μg pEGFP/(PKKKRKVG)4 complexes N/P 8 (24 hours) and measured by flow cytometry.

[5] = system: DNase I; test: stability of vector/DNA complexes against DNase I digestion, agarose gel; format: physicochemical; conditions: higher enzyme concentrations (2.5, 5, 10 U DNase I), 1 h at 37° C., 3 μg pEGFP
[6] = system: 16HBE14o-cells; test: inhibition of gene transfer by excess of free peptide, luciferase assay; format: cell-based; conditions: 30 fold molar excess of free peptide added 20 min before the complexes
[7] = system: 16HBE14o cells; test: tracking of DNA-TOTO-3/(PKKKRKVG)4-FITC complexes on their way to the nucleus; format: cell-based; conditions: 100% confluent cells, 5 μg CMVL-W, 24 μg peptide (N/P 8)
[8] = system: COS7 cells; test: transfection efficiency at 4° C. compared with 37° C.; format: cell-based; conditions: 4 h transfection, COS7, luciferase after 24 h
Method: Cells were transfected with 1 μg of CMVL-W complexed with C(YGRKKRRQRRRG)24 at N/P=10 for 4 h at 4° C. or at 37° C. Luciferase activity was measured (10 sec) after 24 h.
At low temperatures such as 4° C. energy-dependent processes like the endosomal uptake are suppressed. For this reason transfection efficiency at 4° C. could be an indicator for the extend of endosomal uptake which takes place during the transfection period. Transfection was performed in the way as described above but for the 4° C. experiment the 24 well plate was incubated in a cool room at 4° C. for 4 h.

[9] = system: COS7 cells; test: effect of peptide on gene transfer mediated by PEI, fractured Dendrimers and Lipofectamine; format: cell-based

(PKTKRKVG)4: tetramer containing mutant large T-NLS (SEQ ID NO: 6); threonin mutant known to be transport deficient [reference compound]
nuclear transport of covalently coupled BSA-BODIPY [1]: no signal was seen in the nucleus | gene transfer efficiency compared with (PKKKRKVG)4/DNA complexes [2]: significantly lower gene transfer efficiency | location of plasmid DNA by CLSM ([3]; 2 hours): arranged around the nuclear membrane | nuclear localization of plasmid DNA ([3]; 2 hours): nuclear localization of plasmid DNA was not seen | location of plasmid DNA by CLSM ([3]; 24 hours): arranged around the nuclear membrane | cells showing signals in the nuclear region ([3]; 24 hours): 14.7%

(PKKKRKVG)4: tetramer of the wild-type SV40 large T-antigen NLS PKKKRKV with a glycin added at the end of each NLS (SEQ ID NO: 5) (also: tetramer of PKKKRKVG, linkage not given here)
M1 of total cells [4]: 55% | M2 of total cells [4]: 45% | Mean (GFP signal, flow cytometry) [4]: 10.25 | cells showing a GFP signal [4]: Approximately 50% | nuclear transport of covalently coupled BSA-BODIPY [1]: transports the coupled BSA into the nucleus | DNA protection of complexed DNA against DNase I digestion [5]: still can bee seen | inhibition of gene transfer of DNA/(PKKKRKVG)4 complexes by free peptide [6]: complete blockade of gene transfer | cell transfection compared with DNA/Dendrimer-complexes [2]: cell transfection as high as with DNA/Dendrimer-complexes | cell transfection higher as with DNA/poly-L-lysine 2.9 kD/INF7a complexes [2]: 1000 fold | enhancement of cell transfection compared to studies without endosomolytic agents [2]: 10 fold | transfection rates compared with different non-viral vectors ([2]; 1 μg CMVL-W, 4.8 μg (PKKKRKVG)4 (N/P 8), luciferase after 24 h): almost as high transfection rates as with Dendrimer/DNA complexes | increase of relative light units (RLU) per mg cell protein in comparison to poly-L-lysine ([2]; 1 μg CMVL-W, vs poly-L-lysine 2.9 kD/DNA complexes, luciferase after 24 h): 100 fold | transfection results in comparison to transfections without (PKKKRKVG)4 ([2]; 100% confluent cells, CMVL-W/Dendrimer complexes plus (PKKKRKVG)4): 10 fold | effect of added (PKKKRKVG)4 on transfection efficiency of PEI/CMVL-W and Dendrimer/CMVL-W complexes ([2]; added in increasing concentrations to polymer/DNA complexes): significant increase of transfection efficiency | localization of complexes after 4 h ([7]; 4 h): most of the complexes were outside the nucleus | localization of peptide and DNA after 30 h ([7]; 30 h): could be found in the nucleus | location of plasmid DNA by CLSM ([3]; 2 hours): already plasmid DNA in the nucleus | nuclear localization of plasmid DNA ([3]; 2 hours): plasmid DNA could be detected within the nuclear region | location of plasmid DNA by CLSM ([3]; 24 hours): accumulated in the nucleus | cells showing signals in the nuclear region ([3]; 24 hours): 68.9%

wheat germ agglutinin
nuclear transport of covalently coupled BSA-BODIPY [1]: no signal was seen in the nucleus

C(YGRKKRRQRRRG)2: dimer of HIV-1 TAT protein transduction domain YGRKKRRQRRR with G, N-terminal C (SEQ ID NO: 30) (CYGRKKRRQRRRG; also: dimer: C(YGRKKRRQRRRG)2, linkage not given here)
decrease of transfection efficiency at 4° C. compared to 37° C. [8]: 19 fold | effect on gene transfer mediated by PEI ([9]; peptide N/P=1, then PEI 25 kD N/P 10): enhances gene transfer | effect on gene transfer mediated by fractured dendrimers ([9]; peptide N/P=1, then fractured Dendrimer N/P 4.5): enhances gene transfer
